# Laboratory results taken from patent US8278327B2, “PDE10 inhibitors and related compositions and methods” (Omeros Corporation, priority 2006, dated 2012).
# How the values were obtained:
# [1] = biological target: T1, recombinant human PDE 10A1 (Homo sapiens, UniProt Q9Y233); test: PDE10 biochemical assay (modified two-step method of Thompson and Appleman, or SPA with [3H]-cGMP); details: PDE10 inhibition
# T1 construct: made in house; host or cells: Sf9 insect cells, baculovirus
# Protocol: Compounds of this invention may be assayed to determine their IC50 values by a modification of the two-step method of Thompson and Appleman (Biochemistry 10; 311-316; 1971). In short, cAMP is spiked with (^3H)cAMP and incubated with PDE10 and various concentrations of a compound of structure (I). After the appropriate incubation time, the reaction is terminated by heating. The mixture is then subjected to treatment with snake venom phosphatase. The phosphatase hydrolyzes any AMP in the mixture, but leaves unreacted cAMP intact. Thus, by separating cAMP from the mixture and determining its concentration (by radiography), the percent of inhibition can be determined. IO50 values can be calculated by performing the experiment at several concentrations using standard graphical means. A detailed description of the actual technique used for IC50 assays are shown in Example 8.
# The phosphodiesterase (PDE) assay was performed using recombinant human PDE 1A3, 2A3, 3 catalytic region, 4 catalytic region, 5 catalytic region, 7A, 8A, 9A2, 10A1 and 11A1 enzymes expressed in a baculoviral system using Sf9 cells. PDE activity was measured using a modification of the two-step method of Thompson and Appleman described above which was adapted for 96 well plate format. […] The final assay volume was 110 μl with assay buffer (10 mM MgCl2; 40 mM Tris.HCl; pH 7.4). Reactions were initiated with enzyme and incubated with (^3H)—substrate and substance for 20 minutes at 30° C. The reaction was terminated by denaturing the enzyme (heating the reaction to 70° C. for 2 minutes). […] The soluble fraction (50 μl) was then added to microscint-20 (200 μl) and counted on a Top Count Plate reader. Radioactivity units were plotted against inhibitor concentration and IC50 values obtained using Graph Pad Prism software.
# Alternatively, phosphodiesterase activity was measured by scintillation proximity assay (SPA) with [^3H]-cGMP as substrate. […] Inhibition was evaluated at 8 concentrations in duplicate. […] The mixture was shaken, allowed to settle for 3 hours, and counted in a Wallac plate counter. […]
# C57BL/6 male mice [2] = test: PCP-induced hyperactivity; format: in vivo; details: PCP 5 mg/kg, p<0.001
# Protocol: Psychostimulant-induced hyperactivity is measured by injecting animals with PCP or amphetamine and monitoring the animals' activity levels in the VersaMax chambers (Accuscan Instruments, Columbus, Ohio) measuring 40×40 cm. Locomotor activity is detected by photobeam breaks as the animal crosses each beam. The animal is placed in the center of the field and left undisturbed for a period of time (20 min to 2 hr) to measure its spontaneous activity in a novel environment. Measurements used to assess locomotor activity include: horizontal activity, total distance traveled, vertical activity (rearing events—animal raises up on hindlimbs), rotation, stereotypy, and distance traveled in the center compared to total distance traveled (center:total distance ratio). Psychostimulants, including dopamine agonist amphetamine and NMDA antagonist PCP, induce psychosis-like conditions manifested as hyperactivity and increased stereotypic behavior. Known antipsychotics are able to reverse psychostimulant-induced hyperactivity and increased stereotypy.
# C57BL/6 male mice [3] = test: Amphetamine-induced hyperactivity; format: in vivo; details: 50 mg/kg i.p., amphetamine 5 mg/kg, vs vehicle+amph control, p<0.01
# C57BL/6 male mice [4] = test: Conditioned avoidance response (CAR); format: in vivo
# Text: Conditioned avoidance response (CAR) is a behavioral test to evaluate antipsychotic effect of a test compound. It utilizes a shuttle box (Med Associates, St. Albans, Vt.) with two equal chambers separated by a retractable door. Each chamber is fitted with metal grid floor that is capable of delivering electric shocks independently. A computer program is used to implement the testing paradigm as well as record the animal's movement between the two chambers through infrared beam sensors. The testing paradigm is as the follows. A mouse is placed into one chamber. A light (conditioned stimulus, CS) comes on. Five seconds later, mild electric shocks (0.4 mA) (unconditioned stimulus, US) are delivered to the chamber where the mouse is located (as detected by infrared beams) until the mouse escapes to the adjacent chamber or until 10 sec has elapsed. The US and CS always co-terminate. With randomized inter-trial intervals averaging 15 sec, 30 such CS-US pairing trials are given to each mouse each day. For each trial, an escape response is registered if the mouse crosses to the other chamber after being shocked (i.e., during the 10-sec US period), and an avoidance response is registered if the mouse crosses to the other chamber during the first 5-sec CS only period. The animals are trained in such paradigm for 15-20 days, during which the average percentage of avoidance responses will improve to 60-80%. […] These trained animals are then used for compound testing using the same paradigm.
# C57BL/6 male mice were trained in the CAR paradigm to predict and avoid the noxious stimulus, reaching a plateau of approximately 20-25 avoidance responses per 30 trials (“training plateau”) each day. The mice were then injected with compound or vehicle via i.p., and 20 minutes later they were tested for 30 trials in the CAR paradigm. Vehicle treatment and compound treatment were given to the same animals on alternating days, and the effect of compound in reducing avoidance response was analyzed through within-subject comparison (paired t-test).
# C57BL/6 male mice [5] = details: 50 mg/kg i.p., 30 min after injection, vs vehicle control
# C57BL/6 male mice [6] = test: Novel object recognition test (PCP-disrupted); format: in vivo; details: 10 mg/kg i.p. with PCP 5 mg/kg, tested 24 h later, p<0.01 vs PCP-treated group
# Protocol: The antipsychotic effect of a test compound may also be evaluated by a novel object recognition test. In a novel object recognition test, mice are housed singly for 1-2 days and then injected with vehicle, PCP, or PCP plus the test compound. Twenty minutes after injection, the mice are presented with and allowed to explore two identical objects for 30 minutes. At the end of the exploration period the objects are removed. Twenty-four hours later each mouse is presented with a pair of objects, one familiar and one novel. After a variable delay, the mice begin to explore the objects. The time exploring each object is measured for 4 minutes starting from the first approach to either object. The fraction of total exploration time spent studying the novel object is recorded as a measure of novelty recognition.
# At the end of the exploration period, the objects were removed. Twenty-four hours later, each mouse was presented with a pair of objects, one familiar and one novel, and the time exploring each object was measured for 4 minutes starting from the first approach to either object.
# PDE10 = details: Soderling and Beavo 2000, read-out: IC50 (50% inhibitory concentration); cited from earlier work
# [7] = 50 mg/kg i.p., vs vehicle+PCP control
# [8] = 0.2 mg/kg i.p., vs vehicle+PCP control
# T1 sequence (Q9Y233 1-779 isoform Q9Y233-1): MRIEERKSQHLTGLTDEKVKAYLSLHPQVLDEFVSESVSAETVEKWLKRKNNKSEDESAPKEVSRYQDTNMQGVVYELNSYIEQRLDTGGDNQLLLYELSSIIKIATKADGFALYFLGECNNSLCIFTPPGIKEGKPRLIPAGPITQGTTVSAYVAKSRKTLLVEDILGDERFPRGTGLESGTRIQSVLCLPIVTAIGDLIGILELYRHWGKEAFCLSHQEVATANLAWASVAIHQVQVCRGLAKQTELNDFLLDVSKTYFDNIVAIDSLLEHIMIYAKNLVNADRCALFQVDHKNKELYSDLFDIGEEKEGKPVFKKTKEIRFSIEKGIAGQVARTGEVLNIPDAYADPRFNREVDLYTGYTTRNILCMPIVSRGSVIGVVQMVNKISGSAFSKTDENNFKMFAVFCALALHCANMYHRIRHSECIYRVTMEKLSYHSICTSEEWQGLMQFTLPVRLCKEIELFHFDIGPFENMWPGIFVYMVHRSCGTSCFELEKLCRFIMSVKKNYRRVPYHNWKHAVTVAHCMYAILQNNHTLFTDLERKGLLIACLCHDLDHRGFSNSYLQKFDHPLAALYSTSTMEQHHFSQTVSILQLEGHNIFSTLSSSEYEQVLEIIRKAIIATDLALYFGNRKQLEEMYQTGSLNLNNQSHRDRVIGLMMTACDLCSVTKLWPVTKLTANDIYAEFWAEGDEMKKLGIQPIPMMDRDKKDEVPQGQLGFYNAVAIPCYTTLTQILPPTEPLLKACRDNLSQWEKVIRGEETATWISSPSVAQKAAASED
smiles,measurement,setting,value
"COc1cc(/C=N/NC(=O)CC2Sc3ccccc3NC2=O)cc(OC)c1OC (stereo not drawn) [Compound 1-1, (E)-2-(3-oxo-3,4-dihydro-2H-benzo[B][1,4]thiazin-2-yl)-N′-(3,4,5-trimethoxybenzylidene)acetohydrazide]",IC50,[1],≤ 1000 nM
"CCOc1ccc(/C=N/NC(=O)CSc2nc3ccccc3n2Cc2ccccc2)cc1OC [Compound 4-1, (E)-2-(1-benzyl-1H-benzo[d]imidazol-2-ylthio)-N′-(4-ethoxy-3-methoxybenzylidene)acetohydrazide]",IC50,[1],≤ 1000 nM
"COc1ccc(/C=N/NC(=O)CSc2cc(C)nc3ccccc23)cc1OC [Compound 5-1, (E)-N′-(3,4-dimethoxybenzylidene)-2-(2-methylquinolin-4-ylthio)acetohydrazide]",IC50,[1],≤ 1000 nM
same,hyperactivity induced by PCP,C57BL/6 male mice [2]; [7],completely abolishes
same,stereotypy induced by PCP,C57BL/6 male mice [2]; [7],completely abolishes
same,hyperactivity induced by amphetamine,C57BL/6 male mice [3],partially but significantly reduce
same,stereotypy induced by amphetamine,C57BL/6 male mice [3],partially but significantly reduce
same,number of avoidance response,"C57BL/6 male mice [4]; 30 mg/kg i.p., tested 20 min later, 30 trials, p<0.001",significantly reduces
same,startle response,C57BL/6 male mice [5],does not affect
same,PPI at 3 different prepulse levels,"C57BL/6 male mice [5]; p<0.05, p<0.01",significantly increases
COc1cc(/C=N/NC(=O)CSc2cc(C)nc3ccccc23)cc(OC)c1O [Compound 5-110],hyperactivity induced by PCP,C57BL/6 male mice [2]; 30 mg/kg,significantly reduces
same,stereotypy induced by PCP,C57BL/6 male mice [2]; 30 mg/kg,significantly reduces
same,number of avoidance response,"C57BL/6 male mice [4]; 10 mg/kg, procedure as in Example 12, p<0.01",significantly reduces
COc1ccc2nc(C)cc(SCC(=O)NN=Cc3cc(OC)c(OC)c(OC)c3)c2c1 [Compound 5-184],novel object recognition performance,C57BL/6 male mice [6],able to restore
CC(C)Cn1c(=O)n(C)c(=O)c2[nH]cnc21 [IBMX],IC50,PDE10,2600 nM
"O=C(CCCN1CCC(O)(c2ccc(Cl)cc2)CC1)c1ccc(F)cc1 [haloperidol, reference compound]",hyperactivity induced by PCP,C57BL/6 male mice [2]; [8],significantly reduce
same,stereotypy induced by PCP,C57BL/6 male mice [2]; [8],significantly reduce
same,number of avoidance response,"C57BL/6 male mice [4]; 0.15 mg/kg i.p., tested 20 min later, 30 trials, p<0.001",significantly reduces
